Test results from publication PMC6686047, “Efficient Inhibition of Human Papillomavirus Infection by L2 Minor Capsid-Derived Lipopeptide” (mBio, 2019).
Bridge positions count the residues as written; N and C are the ends. Ends that are not written are not given here. Peptide text beside a SMILES is read from it. * marks the point of attachment. Stearoyl = CCCCCCCCCCCCCCCCCC(=O)*

Legend:
[1] = test system: HPV-GFP (HPV16 pseudovirus carrying GFP); assay type: cell-based; conditions: HeLa cells; ∼500 nM lipopeptide during inoculation; GFP at 36 hpi
[2] = test system: HPV-Lucia (HPV16 pseudovirus carrying Lucia); conditions: for Relative anti-HPV activity: CHO-K1 cells, HPV-Lucia, Lucia activity at 36 hpi, potency compared with WT peptide (13-48, 100%) used at four concentrations; for IC50: 4 h

Row | Molecule | inhibition of HPV-GFP infection by L2N-CVIM lipopeptides (in words) [1] | Relative anti-HPV activity [2] [%] | IC50 [2] [nM]
1 | 13-48CVIM: HPV16 L2N13-48 lipopeptide produced in 293T cells, CVIM motif isoprenylated (geranylgeranylation), released by furin | suppressed HPV-GFP infection | 100 | –
2 | 13-55CVIM: HPV16 L2N13-55 lipopeptide produced in 293T cells, CVIM motif isoprenylated, released by furin | suppressed HPV-GFP infection | 10 | –
3 | CCCCCCCCCCCCCCCCCC(=O)NCCCC[C@H](NC(=O)[C@H](CO)NC(=O)CNC(=O)[C@H](Cc1ccc(O)cc1)NC(=O)[C@H](CCC(N)=O)NC(=O)[C@H](CC(C)C)NC(=O)[C@@H](NC(=O)[C@H](CCC(N)=O)NC(=O)[C@H](CCCCN)NC(=O)[C@H](C)NC(=O)[C@@H](NC(=O)[C@@H](NC(=O)[C@H](CCCCN)NC(=O)CNC(=O)[C@H](CCC(=O)O)NC(=O)[C@@H](NC(=O)[C@H](CCCCN)NC(=O)[C@@H]1CCCN1C(=O)[C@@H](NC(=O)[C@@H](NC(=O)[C@H](CC(=O)O)NC(=O)[C@@H]1CCCN1C(=O)[C@@H]1CCCN1C(=O)[C@@H]1CSSC[C@H](NC(=O)[C@@H](NC(=O)[C@H](CCCCN)NC(=O)[C@H](Cc2ccc(O)cc2)NC(=O)[C@H](CC(C)C)NC(=O)[C@H](CCC(N)=O)NC(=O)[C@@H](NC(=O)[C@H](C)NC(=O)[C@H](CO)NC(=O)[C@H](C)N)[C@@H](C)O)[C@@H](C)O)C(=O)N[C@@H](CCCCN)C(=O)N[C@@H](CCC(N)=O)C(=O)N[C@@H](C)C(=O)NCC(=O)N[C@@H]([C@@H](C)O)C(=O)N1)[C@@H](C)CC)[C@@H](C)CC)C(C)C)[C@@H](C)O)[C@@H](C)CC)[C@@H](C)CC)C(=O)O [13-50st-D43K] (H-ASATQLYKTCKQAGTCPPDIIPKVEGKTIAKQILQYGSK(Stearoyl)-OH; disulfide 10-16) | – | – | 200
4 | CCCCCCCCCCCCCCCCCC(=O)NCCCC[C@H](NC(=O)[C@H](CO)NC(=O)CNC(=O)[C@H](Cc1ccc(O)cc1)NC(=O)[C@H](CCC(N)=O)NC(=O)[C@H](CC(C)C)NC(=O)[C@@H](NC(=O)[C@H](CCC(N)=O)NC(=O)[C@H](CC(=O)O)NC(=O)[C@H](C)NC(=O)[C@@H](NC(=O)[C@@H](NC(=O)[C@H](CCCCN)NC(=O)CNC(=O)[C@H](CCC(=O)O)NC(=O)[C@@H](NC(=O)[C@H](CCCCN)NC(=O)[C@@H]1CCCN1C(=O)[C@@H](NC(=O)[C@@H](NC(=O)[C@H](CC(=O)O)NC(=O)[C@@H]1CCCN1C(=O)[C@@H]1CCCN1C(=O)[C@@H]1CSSC[C@H](NC(=O)[C@@H](NC(=O)[C@H](CCCCN)NC(=O)[C@H](Cc2ccc(O)cc2)NC(=O)[C@H](CC(C)C)NC(=O)[C@H](CCC(N)=O)NC(=O)[C@@H](NC(=O)[C@H](C)NC(=O)[C@H](CO)NC(=O)[C@H](C)N)[C@@H](C)O)[C@@H](C)O)C(=O)N[C@@H](CCCCN)C(=O)N[C@@H](CCC(N)=O)C(=O)N[C@@H](C)C(=O)NCC(=O)N[C@@H]([C@@H](C)O)C(=O)N1)[C@@H](C)CC)[C@@H](C)CC)C(C)C)[C@@H](C)O)[C@@H](C)CC)[C@@H](C)CC)C(=O)O [13-50st] (H-ASATQLYKTCKQAGTCPPDIIPKVEGKTIADQILQYGSK(Stearoyl)-OH; disulfide 10-16) | – | – | 30
5 | ASATQLYKTCKQAGTCPPDIIPKVEGKTIADQILQYGSMGVFF (disulfide 10-16) [13-55-no st] | – | – | > 1000
6 | ASATQLYKTCKQAGTCPPDIIPKVEGKTIADQILQYGSMGVFFK(Stearoyl) (disulfide 10-16) [13-55st] | – | – | 100
7 | SVIM: L2N13-48 peptide with cysteine-to-serine mutation in the CVIM motif, negative control | completely abolished their ability to inhibit HPV-GFP infection | 0 | –
8 | pZeo5-tSA-Furin-13-44GT-CVIM: HPV16 L2N13-48 lipopeptide with deletion of ILQY | – | < 0.8 | –
9 | pZeo5-tSA-Furin-13-46-CVIM: HPV16 L2N13-46 lipopeptide with deletion of QYGT | – | 5 | –
10 | pZeo5-tSA-Furin-13-46GT-CVIM: HPV16 L2N lipopeptide with L2N13-46 | – | 200 | –
11 | pZeo5-tSA-Furin-13-48GT-CVIM-D31K: HPV16 L2N13-48 lipopeptide with D31K | – | 20 | –
12 | pZeo5-tSA-Furin-13-48GT-CVIM-QQKK: HPV16 L2N13-48 lipopeptide with double Q44K and Q47K | – | 150 | –
13 | pZeo5-tSA-Furin-13-48GT-CVIM-d42: HPV16 L2N13-48 lipopeptide with deletion of A42 (ASATQLYKTCKQAGTCPPDIIPKVEGKTIEQILQY; not fully specified (C-terminus); cysteine pairing not given here; also: CVIM isoprenylation motif lipopeptide; UniProt P03107 13-48, looked up, variant A42*) | – | < 1 | –
